# Columns and labels:
# Assay type in all cases: in vivo
# Setaria faberi (SETFA) [1] = experiment: Pre-emergence herbicidal glasshouse test, Setaria faberi; conditions: rate 250 g/ha, evaluated after 13 days, scale 100 = total damage to plant, 0 = no damage; for pest or weed control at 250 g/ha: Setaria faberi, 312 h
# Protocol: (§1) Seeds of a variety of test species were sown in standard soil in pots. After cultivation for one day (pre-emergence) or after 8 days cultivation (post-emergence) under controlled conditions in a glasshouse (at 24/16° C., day/night; 14 hours light; 65% humidity), the plants were sprayed with an aqueous spray solution derived from the formulation of the technical active ingredient in acetone/water (50:50) solution containing 0.5% Tween 20 (polyoxyethelyene sorbitan monolaurate, CAS RN 9005-64-5). The test plants were then grown in a glasshouse under controlled conditions in a glasshouse (at 24/16° C., day/night; 14 hours light; 65% humidity) and watered twice daily. After 13 days for pre and post-emergence, the test was evaluated ([…] to plant; 0=no damage to plant).
# (§2) Setaria faberi (SETFA), Lolium perenne (LOLPE), Alopecurus myosuroides (ALOMY), Echinochloa crus-galli (ECHCG) and Avena fatua (AVEFA).
# [2] = system: Alopecurus myosuroides (ALOMY); experiment: Pre-emergence herbicidal glasshouse test, Alopecurus myosuroides; conditions: rate 250 g/ha, evaluated after 13 days, scale 100 = total damage to plant, 0 = no damage; for pest or weed control at 250 g/ha: Alopecurus myosuroides, 312 h
# Procedure, shortened: (§3)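 Pots, standard soil; spray at day 1 (pre-em) or day 8 (post-em). Formulation: acetone/water 50:50 + 0.5% Tween 20, diluted into aqueous spray. Glasshouse 24/16° C., 14 h light, 65% RH, watering twice daily. Scored at 13 days: 0 = no damage up to total plant damage.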
# [3] = system: Echinochloa crus-galli (ECHCG); experiment: Pre-emergence herbicidal glasshouse test, Echinochloa crus-galli; conditions: rate 250 g/ha, evaluated after 13 days, scale 100 = total damage to plant, 0 = no damage; for pest or weed control at 250 g/ha: Echinochloa crus-galli, 312 h
# Procedure, shortened: as §3
# Avena fatua (AVEFA) [4] = experiment: Pre-emergence herbicidal glasshouse test, Avena fatua; conditions: rate 250 g/ha, evaluated after 13 days, scale 100 = total damage to plant, 0 = no damage; for pest or weed control at 250 g/ha: Avena fatua, 312 h
# Procedure, shortened: as §3
# Setaria faberi (SETFA) [5] = experiment: Post-emergence herbicidal glasshouse test, Setaria faberi; conditions: rate 250 g/ha, evaluated after 13 days, scale 100 = total damage to plant, 0 = no damage; for pest or weed control at 250 g/ha: Setaria faberi, 312 h
# Protocol: as §1, §2
# [6] = system: Alopecurus myosuroides (ALOMY); experiment: Post-emergence herbicidal glasshouse test, Alopecurus myosuroides; conditions: rate 250 g/ha, evaluated after 13 days, scale 100 = total damage to plant, 0 = no damage; for pest or weed control at 250 g/ha: Alopecurus myosuroides, 312 h
# Procedure, shortened: as §3
# [7] = system: Echinochloa crus-galli (ECHCG); experiment: Post-emergence herbicidal glasshouse test, Echinochloa crus-galli; conditions: rate 250 g/ha, evaluated after 13 days, scale 100 = total damage to plant, 0 = no damage; for pest or weed control at 250 g/ha: Echinochloa crus-galli, 312 h
# Procedure, shortened: as §3
# Avena fatua (AVEFA) [8] = experiment: Post-emergence herbicidal glasshouse test, Avena fatua; conditions: rate 250 g/ha, evaluated after 13 days, scale 100 = total damage to plant, 0 = no damage; for pest or weed control at 250 g/ha: Avena fatua, 312 h
# Procedure, shortened: as §3
# Lolium perenne (LOLPE) [9] = experiment: Pre-emergence herbicidal glasshouse test, Lolium perenne; conditions: 312 h, rate 250 g/ha, evaluated after 13 days, scale 100 = total damage to plant, 0 = no damage
# Procedure, shortened: as §3
# Lolium perenne (LOLPE) [10] = experiment: Post-emergence herbicidal glasshouse test, Lolium perenne; conditions: 312 h, rate 250 g/ha, evaluated after 13 days, scale 100 = total damage to plant, 0 = no damage
# Procedure, shortened: as §3
Structure (SMILES),pest or weed control at 250 g/ha (Setaria faberi (SETFA) [1]) [%],pest or weed control at 250 g/ha [2] [%],pest or weed control at 250 g/ha [3] [%],pest or weed control at 250 g/ha (Avena fatua (AVEFA) [4]) [%],pest or weed control at 250 g/ha (Setaria faberi (SETFA) [5]) [%],pest or weed control at 250 g/ha [6] [%],pest or weed control at 250 g/ha [7] [%],pest or weed control at 250 g/ha (Avena fatua (AVEFA) [8]) [%],"damage to plant SETFA, pre-emergence activity (Setaria faberi (SETFA) [1])","damage to plant ALOMY, pre-emergence activity [2]","damage to plant ECHCG, pre-emergence activity [3]","damage to plant AVEFA, pre-emergence activity (Avena fatua (AVEFA) [4])","damage to plant SETFA, post-emergence activity (Setaria faberi (SETFA) [5])","damage to plant ALOMY, post-emergence activity [6]","damage to plant ECHCG, post-emergence activity [7]","damage to plant AVEFA, post-emergence activity (Avena fatua (AVEFA) [8])",pest or weed control at 250 g/ha (Lolium perenne (LOLPE) [9]) [%],pest or weed control at 250 g/ha (Lolium perenne (LOLPE) [10]) [%]
CCc1cc(-c2ccc(Cl)cc2)ccc1C1=C(O)[C@@]2(C)C=C[C@H](O2)C1=O [Compound A-7],0,0,0,0,100,60,100,30,,,,,,,,,,
CCc1cc(-c2ccc(Cl)s2)ccc1C1=C(O)[C@@]2(C)CC[C@H](O2)C1=O [Compound A-23],60,60,50,40,80,90,100,30,,,,,,,,,,
CCc1cc(-c2ccc(Cl)c(F)c2F)ccc1C1=C(O)[C@@]2(C)CC[C@H](O2)C1=O (racemic) [Compound A-30],0,0,0,0,90,30,50,0,,,,,,,,,,
CCc1cc(-c2ccc(Cl)cc2)cc(CC)c1C1=C(O)[C@@]2(C)CC[C@H](O2)C1=O (racemic) [Compound A-11],100,80,100,100,100,100,100,100,,,,,,,,,,
CCc1cc(-c2ccc(Cl)c(Cl)c2)ccc1C1=C(O)[C@@]2(C)CC[C@H](O2)C1=O [Compound A-17],100,30,100,80,100,100,100,100,,,,,,,,,,
CCc1cc(-c2c(F)cc(Cl)cc2F)ccc1C1=C(O)[C@@]2(C)CC[C@H](O2)C1=O (racemic) [Compound A-27],30,20,40,0,100,90,100,70,,,,,,,,,,
Cc1cc(-c2ccccc2)cc(C)c1C1=C(O)[C@@]2(C)C=C[C@H](O2)C1=O [Compound A-2],,,70,20,80,90,100,0,60,50,,,,,,,,
Cc1cc(-c2ccccc2)cc(C)c1C1=C(O)[C@@]2(C)C=C[C@H](O2)C1=O [Compound A-3],,,,,,,,,90,0,70,20,100,70,100,0,,
CCc1cc(-c2ccc(Cl)cc2C)ccc1C1=C(O)[C@@]2(C)CC[C@H](O2)C1=O [Compound A-16],50,0,0,0,80,90,20,0,,,,,,,,,,
CCc1cc(-c2ccc(Cl)nc2)ccc1C1=C(O)[C@@]2(C)CC[C@H](O2)C1=O [Compound A-25],90,30,50,20,100,90,100,60,,,,,,,,,,
CCc1cc(-c2ccc(Cl)cc2)ccc1C1=C(O)[C@@]2(C)CC[C@H](O2)C1=O (racemic) [Compound A-5],70,30,40,0,100,90,100,70,,,,,,,,,,
CCc1cc(-c2ccc(Cl)cc2Cl)cc(CC)c1C1=C(O)[C@@]2(C)CC[C@H](O2)C1=O (relative stereo) [Compound A-34],,,,,90,30,70,20,,,,,,,,,,
CCc1cc(-c2cc(F)c(F)c(F)c2)ccc1C1=C(O)C(C)(C)C(=O)C(C)(C)C1=O [Compound C-5],,30,0,20,,100,100,90,,,,,,,,,40,70
CCc1cc(-c2ccc(F)c(F)c2F)ccc1C1=C(O)C(C)(CC)OC(C)(C)C1=O (stereo not drawn) [Compound A-123],,0,0,0,,80,90,80,,,,,,,,,0,80
CCc1cc(-c2ccc(F)c(Cl)c2)ccc1C1=C(O)C(C)(C)OC(C)(C)C1=O [Compound A-76],,0,0,0,,80,70,40,,,,,,,,,0,80
CCc1cc(-c2ccc(F)cc2)ccc1C1=C(O)C(C)(C)OC(C)(C)C1=O [Compound A-50],,60,90,60,,90,100,80,,,,,,,,,100,100
CCc1cc(-c2ccc(F)cc2OC)ccc1C1=C(O)C(C)(C)OC(C)(C)C1=O [Compound A-85],,0,20,30,,60,80,40,,,,,,,,,70,70
CCc1cc(-c2cc(F)c(F)c(F)c2)ccc1C1=C(O)C(C)(COC)OC(C)(C)C1=O (stereo not drawn) [Compound A-114],,90,100,90,,90,100,90,,,,,,,,,100,100
CC1(C)OC(C)(C)C(O)=C(c2ccc(-c3ccc(F)cc3)cc2OC(F)(F)F)C1=O [Compound A-135],,30,30,10,,60,100,10,,,,,,,,,10,60
CCc1cc(-c2cc(F)c(F)c(F)c2)ccc1C1=C(O)C(C)(C)S(=O)(=O)C(C)(C)C1=O [Compound B-18],,30,30,30,,70,80,90,,,,,,,,,50,80
